We go through 15 compounds from PubChem BioAssay (NCI).

Some test systems named below: 786-0 renal; HOP-62 NSCLC; M14 melanoma; MDA-N; NCI-H23 lung; RPMI-8226 leukemia; SK-MEL-2 melanoma; MALME-3M melanoma; RXF 393 renal; UACC-257 melanoma.
Holding throughout (assay): NCI tumour cell line growth inhibition, 48 h

Structures are written as SMILES.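 Compound exposure: 48 hours, 5 concentrations, 96-well plates. TGI: concentration producing complete growth inhibition.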

Consider `CCc1ccc2oc(-c3cc(O)c(-c4nc5cc(CC)ccc5o4)cc3O)nc2c1`, for which the TGI in the assay with 786-0 renal, with HOP-62 NSCLC, with M14 melanoma, in the assay on MDA-N, in the assay on NCI-H23 lung and with RPMI-8226 leukemia was above 100 µM throughout. In the assay with SK-MEL-2 melanoma, this compound came in with a TGI above 100 µM.

As for `Nn1c(CCCCCCCCc2nnc(COc3ccc(Cl)cc3)n2N)nnc1COc1ccc(Cl)cc1`, the TGI in the assay with 786-0 renal, in the assay on M14 melanoma, in the assay with MALME-3M melanoma, in the assay on NCI-H23 lung, with RPMI-8226 leukemia and in the assay on RXF 393 renal was above 100 µM each time. Further, the TGI in the assay with SK-MEL-2 melanoma and in the assay with UACC-257 melanoma was above 100 µM each time.

For `Cc1ccn2c(=O)cc(-c3ccccc3)nc2c1`, the TGI in the assay with 786-0 renal, in the assay with HOP-62 NSCLC, in the assay on M14 melanoma, in the assay with MALME-3M melanoma, in the assay with MDA-N and with NCI-H23 lung was above 100 µM in each case. Besides, the TGI in the assay on RPMI-8226 leukemia, in the assay on RXF 393 renal and in the assay with UACC-257 melanoma was above 100 µM in each case.

For the compound `Cc1ccc(/C(O)=C/C(=O)C(=O)/C=C(\O)c2ccc(C)cc2C)c(C)c1`, the TGI with 786-0 renal is 4.28 µM; with HOP-62 NSCLC, 3.24 µM; in the assay on M14 melanoma, 3.27 µM; in the assay with MALME-3M melanoma, 3.45 µM; in the assay with NCI-H23 lung, 3.5 µM; in the assay on RPMI-8226 leukemia it was 4.59 µM. Besides, the figures for the TGI with RXF 393 renal, with SK-MEL-2 melanoma and in the assay with UACC-257 melanoma were 4.22 µM, 3.65 µM and 3.21 µM, respectively.

As to `c1cc2nnnn2nc1N1CCCC1`, the TGI with 786-0 renal, with M14 melanoma, with MDA-N, in the assay on NCI-H23 lung, in the assay on RPMI-8226 leukemia and in the assay on RXF 393 renal was above 100 µM in each case. Further, the TGI with SK-MEL-2 melanoma and in the assay on UACC-257 melanoma was above 100 µM in each case.

Regarding `Cc1cc(C2(O)C=C(C(C)(C)C)C(=O)C(C(C)(C)C)=C2)c(C)cc1C1(O)C=C(C(C)(C)C)C(=O)C(C(C)(C)C)=C1`, the TGI with 786-0 renal, with HOP-62 NSCLC, in the assay on M14 melanoma, in the assay with MALME-3M melanoma, with MDA-N and in the assay with NCI-H23 lung was above 100 µM in each case. Further, the TGI in the assay on RPMI-8226 leukemia, with SK-MEL-2 melanoma and in the assay with UACC-257 melanoma was above 100 µM in each case.

`CN(O)C(=O)c1cccc(Cl)c1`: the TGI with 786-0 renal, in the assay on HOP-62 NSCLC, in the assay on M14 melanoma, in the assay with MDA-N, in the assay on NCI-H23 lung and in the assay on RPMI-8226 leukemia was above 100 µM throughout. Also, the TGI in the assay on RXF 393 renal, with SK-MEL-2 melanoma and in the assay on UACC-257 melanoma was above 100 µM each time.

Turning to `CCOC(=O)/C=C(/C(=O)OCC)n1ccc(N)nc1=O`, the TGI with 786-0 renal, with HOP-62 NSCLC, in the assay on M14 melanoma, in the assay on MALME-3M melanoma, in the assay on MDA-N and in the assay on NCI-H23 lung was above 100 µM each time. In addition, the TGI in the assay on RPMI-8226 leukemia, in the assay with SK-MEL-2 melanoma and in the assay on UACC-257 melanoma was above 100 µM each time.

Take `Cc1ccc2c(c1)[nH]c1cc(C(F)(F)F)ccc1[p+]2=O` (centres undefined): the TGI with 786-0 renal, in the assay with HOP-62 NSCLC, with M14 melanoma, with MALME-3M melanoma, with MDA-N and in the assay on NCI-H23 lung was above 100 µM in each case. The figures for the TGI in the assay with RXF 393 renal, in the assay with SK-MEL-2 melanoma and in the assay on UACC-257 melanoma were above 100 µM, above 100 µM and 66 µM, respectively.

In the case of `COC(=O)C1=CC(=O)OC1(OO)c1ccccc1` (centres undefined), the TGI in the assay with 786-0 renal, with M14 melanoma, in the assay with MALME-3M melanoma, in the assay on MDA-N, in the assay with NCI-H23 lung and in the assay on RXF 393 renal was above 100 µM throughout. For the same compound, the TGI with SK-MEL-2 melanoma and in the assay with UACC-257 melanoma was above 100 µM throughout.

Regarding `Nc1ccc(N=Nc2ccccc2)cc1`, the TGI with 786-0 renal, in the assay on HOP-62 NSCLC, with M14 melanoma, in the assay with MALME-3M melanoma, in the assay with MDA-N and in the assay with NCI-H23 lung was above 100 µM each time. Moreover, the TGI with RXF 393 renal was above 100 µM; with SK-MEL-2 melanoma, 68.4 µM; in the assay on UACC-257 melanoma, above 100 µM.

`CCCSc1ccc2[nH]c(/N=C/c3ccco3)cc2c1`: the TGI was above 100 µM with 786-0 renal; above 100 µM in the assay with HOP-62 NSCLC; above 100 µM in the assay on M14 melanoma; above 100 µM in the assay on MALME-3M melanoma; above 100 µM in the assay with NCI-H23 lung; 1.4 µM in the assay on RPMI-8226 leukemia. Further, the TGI with RXF 393 renal is above 100 µM; with SK-MEL-2 melanoma it was 59 µM; in the assay with UACC-257 melanoma, above 100 µM.

With `Nc1c(Cl)ncnc1N[C@@H]1C[C@H]1CO`, the TGI in the assay on 786-0 renal, in the assay with HOP-62 NSCLC, in the assay on M14 melanoma, in the assay with MDA-N, with NCI-H23 lung and with RXF 393 renal was above 100 µM each time. In addition, the TGI with SK-MEL-2 melanoma and with UACC-257 melanoma was above 100 µM throughout.

`C/C=C/C(O)P1(=O)N(Cc2ccccc2)[C@@H]2CCCC[C@H]2N1Cc1ccccc1` (some centres undefined): the TGI with 786-0 renal, in the assay on HOP-62 NSCLC, in the assay on M14 melanoma, with MALME-3M melanoma, with MDA-N and in the assay on NCI-H23 lung was above 25 µM each time. The TGI with RXF 393 renal, in the assay on SK-MEL-2 melanoma and with UACC-257 melanoma was above 25 µM in each case.

Regarding `CC1(CF)SCc2nc3ccccc3n21` (centres undefined), the TGI in the assay on 786-0 renal, with HOP-62 NSCLC, with M14 melanoma, in the assay with MALME-3M melanoma, in the assay with MDA-N and in the assay on NCI-H23 lung was above 100 µM throughout. In addition, the TGI with RPMI-8226 leukemia, in the assay on RXF 393 renal and in the assay with UACC-257 melanoma was above 100 µM each time.
